Test results published in patent US8501746B2, “Organic compounds” (Xenon Pharmaceuticals Inc., priority 2006, dated 2013).

| SMILES | melting point |
| --- | --- |
| Cc1cc(-n2ccc(OCc3ccccc3)cc2=O)sc1C(=O)NCc1cccc(F)c1 [Example 3.22, 5-(4-(Benzyloxy)-2-oxopyridin-1(2H)-yl)-N-(3-fluorobenzyl)-3-methylthiophene-2-carboxamide] | 140 to 141 °C |
| CCNC(=O)c1sc(-n2ccc(OCc3ccccc3)cc2=O)cc1C [Example 3.23, 5-(4-(Benzyloxy)-2-oxopyridin-1(2H)-yl)-N-ethyl-3-methylthiophene-2-carboxamide] | 158 to 160 °C |
| Cc1nc(-n2ccc(C(F)(F)F)cc2=O)sc1C(=O)NCc1cccnc1 [Example 3.24, 4-Methyl-2-(2-oxo-4-(trifluoromethyl)pyridin-1(2H)-yl)-N-(pyridin-3-ylmethyl)thiazole-5-carboxamide] | 172 to 173 °C |
| Cc1nc(-n2ccc(OCc3ccccc3)cc2=O)sc1C(=O)NCc1cccnc1 [Example 3.25, 2-(4-(Benzyloxy)-2-oxopyridin-1(2H)-yl)-4-methyl-N-(pyridin-3-ylmethyl)thiazole-5-carboxamide] | 208 to 209 °C |
| Cc1nc(-n2ccc(NC(=O)c3ccccc3)cc2=O)sc1C(=O)NCc1ccccc1 [Example 4, 2-(4-Benzamido-2-oxopyridin-1(2H)-yl)-N-benzyl-4-methylthiazole-5-carboxamide] | 246 to 248 °C |
| Cc1nc(-n2ccc(NCc3ccccc3)cc2=O)sc1C(=O)NCc1ccccc1 [Example 5, N-benzyl-2-(4-(benzylamino)-2-oxopyridin-1(2H)-yl)-4-methylthiazole-5-carboxamide] | 253 to 255 °C |
| Cc1nc(-n2ccc(OCc3cccnc3)cc2=O)sc1C(=O)NCc1ccccc1 [Example 6, N-Benzyl-4-methyl-2-(2-oxo-4-(pyridin-3-ylmethoxy)pyridin-1(2H)-yl)thiazole-5-carboxamide] | 214 to 216 °C |
| Cc1nc(-n2ccc(OCc3ccccn3)cc2=O)sc1C(=O)NCc1ccccc1 [Example 6.1, N-Benzyl-4-methyl-2-(2-oxo-4-(pyridin-2-ylmethoxy)pyridin-1(2H)-yl)thiazole-5-carboxamide] | 202 to 205 °C |
| Cc1nc(-n2cccc(O)c2=O)sc1C(=O)NCc1ccccc1 [Example 7, N-Benzyl-2-(3-hydroxy-2-oxopyridin-1(2H)-yl)-4-methylthiazole-5-carboxamide] | 225 to 228 °C |
| O=C(NCc1ccccc1)c1csc(-n2ccc(O)cc2=O)c1 [Example 7.3, N-Benzyl-5-(4-hydroxy-2-oxopyridin-1(2H)-yl)thiophene-3-carboxamide] | 150 °C (dec.) |
| Cc1cc(-n2ccc(O)cc2=O)sc1C(=O)NCc1ccccc1 [Example 7.4, N-Benzyl-5-(4-hydroxy-2-oxopyridin-1(2H)-yl)-3-methylthiophene-2-carboxamide] | 98 °C (dec.) |
| Cc1cc(-n2ccc(O)cc2=O)sc1C(=O)NCc1ccc(F)cc1 [Example 7.7, N-(4-Fluorobenzyl)-5-(4-hydroxy-2-oxopyridin-1(2H)-yl)-3-methylthiophene-2-carboxamide] | 95 °C (dec.) |
| Cc1cc(-n2ccc(O)cc2=O)sc1C(=O)NCc1cccc(F)c1 [Example 7.8, N-(3-Fluorobenzyl)-5-(4-hydroxy-2-oxopyridin-1(2H)-yl)-3-methylthiophene-2-carboxamide] | 140 to 142 °C |
| CCNC(=O)c1sc(-n2ccc(O)cc2=O)cc1C [Example 7.9, N-Ethyl-5-(4-hydroxy-2-oxopyridin-1(2H)-yl)-3-methylthiophene-2-carboxamide] | 183 to 184 °C |
| Cc1nc(-n2ccc(O)cc2=O)sc1C(=O)NCc1cccnc1 [Example 7.10, 2-(4-Hydroxy-2-oxopyridin-1(2H)-yl)-4-methyl-N-(pyridin-3-ylmethyl)thiazole-5-carboxamide] | 238 to 240 °C |
| O=C(NCc1ccccc1)c1csc(-n2ccc(OCc3ccccc3)cc2=O)c1 [Example 8, N-Benzyl-5-(4-(benzyloxy)-2-oxopyridin-1(2H)-yl)thiophene-3-carboxamide] | 162 to 163 °C |
| Cc1cc(-n2ccc(OCc3ccccc3)cc2=O)sc1C(=O)NCc1ccccc1 [Example 8.1, N-Benzyl-5-(4-(benzyloxy)-2-oxopyridin-1(2H)-yl)-3-methylthiophene-2-carboxamide] | 153 to 154 °C |
| Cc1cc(-n2ccc(OCCC3CC3)cc2=O)sc1C(=O)NCc1ccccc1 [Example 9, N-Benzyl-5-(4-(2-cyclopropylethoxy)-2-oxopyridin-1(2H)-yl)-3-methylthiophene-2-carboxamide] | 134 to 136 °C |
| Cc1cc(-n2ccc(OCc3ccc(C(F)(F)F)cc3)cc2=O)sc1C(=O)NCc1ccccc1 [Example 9.1, N-Benzyl-3-methyl-5-(2-oxo-4-(4-(trifluoromethyl)benzyloxy)pyridin-1(2H)-yl)thiophene-2-carboxamide] | 225 to 227 °C |
| Cc1cc(-n2ccc(OCc3ccc(F)cc3)cc2=O)sc1C(=O)NCc1ccccc1 [Example 9.2, N-Benzyl-5-(4-(4-fluorobenzyloxy)-2-oxopyridin-1(2H)-yl)-3-methylthiophene-2-carboxamide] | 195 to 197 °C |
| Cc1cc(-n2ccc(OCc3ccc(OC(F)F)cc3)cc2=O)sc1C(=O)NCc1ccccc1 [Example 9.3, N-Benzyl-5-(4-(4-(difluoromethoxy)benzyloxy)-2-oxopyridin-1(2H)-yl)-3-methylthiophene-2-carboxamide] | 178 to 180 °C |

| SMILES | melting point |
| --- | --- |
| Cc1cc(-n2ccc(OCCc3ccccc3)cc2=O)sc1C(=O)NCc1ccccc1 [Example 9.4, N-Benzyl-3-methyl-5-(2-oxo-4-phenethoxypyridin-1(2H)-yl)thiophene-2-carboxamide] | 159 to 160 °C |
| Cc1cc(-n2ccc(OCC3CC3)cc2=O)sc1C(=O)NCc1ccccc1 [Example 9.5, N-Benzyl-5-(4-(cyclopropylmethoxy)-2-oxopyridin-1(2H)-yl)-3-methylthiophene-2-carboxamide] | 175 to 177 °C |
| Cc1nc(-n2ccc(OCc3ccc(C(F)(F)F)o3)cc2=O)sc1C(=O)NCc1ccccc1 [Example 9.7] | 214 to 216 °C |
| Cc1nc(-n2ccc(OCc3ccc(C(F)(F)F)cc3)cc2=O)sc1C(=O)NCc1ccccc1 [Example 9.8, N-Benzyl-4-methyl-2-(2-oxo-4-(4-(trifluoromethyl)benzyloxy)pyridin-1(2H)-yl)thiazole-5-carboxamide] | 278 to 280 °C |
| Cc1nc(-n2ccc(OCc3ccc(OC(F)F)cc3)cc2=O)sc1C(=O)NCc1ccc(F)cc1 [Example 9.9, 2-(4-(4-(Difluoromethoxy)benzyloxy)-2-oxopyridin-1(2H)-yl)-N-(4-fluorobenzyl)-4-methylthiazole-5-carboxamide] | 242 to 244 °C |
| Cc1nc(-n2ccc(OCC3CCCC3)cc2=O)sc1C(=O)NCc1ccccc1 [Example 9.10, N-Benzyl-2-(4-(cyclopentylmethoxy)-2-oxopyridin-1(2H)-yl)-4-methylthiazole-5-carboxamide] | 196 to 198 °C |
| COc1ccn(-c2nc(C)c(C(=O)NCc3ccc(F)c(F)c3)s2)c(=O)c1 [Example 9.11, N-(3,4-Difluorobenzyl)-2-(4-methoxy-2-oxopyridin-1(2H)-yl)-4-methylthiazole-5-carboxamide] | 183 to 185 °C |
| Cc1nc(-n2ccc(OCC3CCCO3)cc2=O)sc1C(=O)NCc1ccccc1 (centres unmarked) [Example 9.12, N-Benzyl-4-methyl-2-(2-oxo-4-((tetrahydrofuran-2-yl)methoxy)pyridin-1(2H)-yl)thiazole-5-carboxamide] | 181 to 183 °C |
| Cc1nc(-n2ccc(-c3ccc(Cl)cc3)cc2=O)sc1C(=O)NCc1ccccc1 [Example 10, N-Benzyl-2-(4-(4-chlorophenyl)-2-oxopyridin-1(2H)-yl)-4-methylthiazole-5-carboxamide] | 265 to 267 °C |
| CCOC(=O)c1[nH]c(-n2ccc(OCc3ccccc3)cc2=O)nc1C [Example 12.2, Ethyl 2-(4-(benzyloxy)-2-oxopyridin-1(2H)-yl)-4-methyl-1H-imidazole-5-carboxylate] | 135 to 136 °C |
| Cc1nc(-n2ccc(OCc3ccc(C(F)(F)F)o3)cc2=O)sc1C(=O)O [Example 13.6] | 261 to 263 °C |
| Cc1nc(-n2ccc(OCc3ccc(F)cc3)cc2=O)sc1C(=O)O [Example 13.7, 2-(4-(4-Fluorobenzyloxy)-2-oxopyridin-1(2H)-yl)-4-methylthiazole-5-carboxylic acid] | > 300 °C |
| CCOC(=O)c1sc(-n2ccc(O)cc2=O)nc1C [Example 14, Ethyl 2-(4-Hydroxy-2-oxopyridin-1(2H)-yl)-4-methylthiazole-5-carboxylate] | 270 to 273 °C |
| CCOC(=O)c1sc(-n2ccc(OCC3CC3)cc2=O)nc1C [Example 15, Ethyl 2-(4-(Cyclopropylmethoxy)-2-oxopyridin-1(2H)-yl)-4-methylthiazole-5-carboxylate] | 180 to 183 °C |
| CCOC(=O)c1sc(-n2ccc(OC)cc2=O)nc1C [Example 15.1, Ethyl 2-(4-Methoxy-2-oxopyridin-1(2H)-yl)-4-methylthiazole-5-carboxylate] | 163 to 165 °C |
| CCOC(=O)c1sc(-n2ccc(OCCC3CC3)cc2=O)nc1C [Example 15.2, Ethyl 2-(4-(2-Cyclopropylethoxy)-2-oxopyridin-1(2H)-yl)-4-methylthiazole-5-carboxylate] | 188 to 190 °C |
| CCOC(=O)c1sc(-n2ccc(OCc3ccc(F)cc3)cc2=O)nc1C [Example 17.1, Ethyl 2-(4-(4-Fluorobenzyloxy)-2-oxopyridin-1(2H)-yl)-4-methylthiazole-5-carboxylate] | 214 to 217 °C |
| CCOC(=O)c1sc(-n2ccc(OCc3ccc(C(F)(F)F)o3)cc2=O)nc1C [Example 17] | 196 to 198 °C |
| Cc1nc(-n2ccc(Oc3ccccc3)cc2=O)sc1C(=O)NCc1ccccc1 [Example 18, N-Benzyl-4-methyl-2-(2-oxo-4-phenoxypyridin-1(2H)-yl)thiazole-5-carboxamide] | 67 to 70 °C |
| Cc1nc(-n2ccc(CCc3ccccc3)cc2=O)sc1C(=O)NCc1ccccc1 [Example 19, N-benzyl-4-methyl-2-(2-oxo-4-phenethylpyridine-1(2H)-yl)thiazole-5-carboxamide] | 149 to 150 °C |
